The supplement of paper PMC10307832

Legend:
Experiment in all cases: relative viability (nuclei count vs DMSO), 5 days (fraction); higher = more cells survive
[1] = compound: COc1cc(Nc2ncc3c(n2)-c2ccc(Cl)cc2C(c2c(F)cccc2OC)=NC3)ccc1C(=O)O [Alisertib] + CC(=O)c1c(C)c2cnc(Nc3ccc(N4CCNCC4)cn3)nc2n(C2CCCC2)c1=O [Palbociclib] (partner 0.5 µM)
Procedure, shortened: (§1)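 Lung cancer cell lines were pin-tool dosed in 1536-well plates on the day after seeding, with either a lone drug or a fixed anchor-drug dose plus five library-drug doses (not always all listed) in √10 steps. Nuclei were counted on 4× images after 5 days. Relative viability is the ratio of treated-well to vehicle-well nuclei counts, with each value a median of duplicate plates.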

[2] = compound: COc1cc(Nc2ncc3c(n2)-c2ccc(Cl)cc2C(c2c(F)cccc2OC)=NC3)ccc1C(=O)O [Alisertib] + CCNC(=O)c1noc(-c2cc(C(C)C)c(O)cc2O)c1-c1ccc(CN2CCOCC2)cc1 [Luminespib] (partner 0.01 µM)
Procedure, shortened: as §1

[3] = compound: COc1cc(Nc2ncc3c(n2)-c2ccc(Cl)cc2C(c2c(F)cccc2OC)=NC3)ccc1C(=O)O [Alisertib] + COc1cccc2cc(-c3nc([C@H]4CC[C@H](C(=O)O)CC4)n4ncnc(N)c34)[nH]c12 [OSI-027] (partner 0.5 µM)
Procedure, shortened: as §1

[4] = compound: COc1cc(Nc2ncc3c(n2)-c2ccc(Cl)cc2C(c2c(F)cccc2OC)=NC3)ccc1C(=O)O [Alisertib] + CS(=O)(=O)N1CCN(Cc2cc3nc(-c4cccc5[nH]ncc45)nc(N4CCOCC4)c3s2)CC1 [Pictilisib] (partner 1 µM)
Procedure, shortened: as §1

Cell Line	relative viability ([1]; first compound 0.005 µM)	relative viability ([1]; first compound 0.01581 µM)	relative viability ([1]; first compound 0.05 µM)	relative viability ([1]; first compound 0.1581 µM)	relative viability ([1]; first compound 0.5 µM)	relative viability ([2]; first compound 0.005 µM)	relative viability ([2]; first compound 0.01581 µM)	relative viability ([2]; first compound 0.05 µM)	relative viability ([2]; first compound 0.1581 µM)	relative viability ([2]; first compound 0.5 µM)	relative viability ([3]; first compound 0.005 µM)	relative viability ([3]; first compound 0.01581 µM)	relative viability ([3]; first compound 0.05 µM)	relative viability ([3]; first compound 0.1581 µM)	relative viability ([3]; first compound 0.5 µM)	relative viability ([4]; first compound 0.005 µM)	relative viability ([4]; first compound 0.01581 µM)	relative viability ([4]; first compound 0.05 µM)	relative viability ([4]; first compound 0.1581 µM)	relative viability ([4]; first compound 0.5 µM)
LCLC-97TM1	0.222	0.215	0.127	0.0905	0.0969	0.787	0.601	0.318	0.177	0.12	0.424	0.349	0.264	0.129	0.0853	0.223	0.167	0.135	0.108	0.0964
HARA	0.288	0.242	0.243	0.161	0.147	0.682	0.428	0.209	0.0919	0.0942	0.409	0.423	0.369	0.113	0.0564	0.283	0.426	0.511	0.112	0.0803
HCC-78	0.5	0.458	0.357	0.407	0.307						0.536	0.354	0.244	0.244	0.241	0.172	0.253	0.168	0.145	0.0967
NCI-H1666	0.609	0.585	0.595	0.551	0.489	0.879	0.801	0.639	0.471	0.379	0.7	0.7	0.592	0.494	0.367	0.389	0.355	0.227	0.21	0.214
NCI-H2347	0.427	0.429	0.438	0.387	0.362	0.275	0.287	0.429	0.317	0.422	0.373	0.346	0.373	0.377	0.282	0.534	0.431	0.41	0.376	0.429
PC-14	0.526	0.45	0.332	0.082	0.0483	0.177	0.141	0.146	0.134	0.151	0.659	0.8	0.393	0.0786	0.049	0.632	0.672	0.447	0.127	0.0567
NCI-H2023	0.349	0.288	0.174	0.125	0.0948	0.807	0.671	0.321	0.127	0.0912	0.333	0.324	0.317	0.162	0.0743	0.193	0.194	0.191	0.128	0.0717
201T	0.351	0.33	0.327	0.28	0.24	1.16	0.971	0.816	0.576	0.362	0.712	0.762	0.632	0.249	0.126	0.623	0.676	0.671	0.326	0.327
NCI-H1915	0.497	0.455	0.29	0.234	0.151	0.684	0.452	0.151	0.148	0.185	0.507	0.473	0.374	0.278	0.238	0.732	0.675	0.45	0.301	0.174
NCI-H2009	0.171	0.199	0.117	0.124	0.123	0.971	0.972	0.395	0.292	0.264	0.497	0.587	0.334	0.233	0.152	0.787	0.787	0.387	0.185	0.139
BEN	0.45	0.444	0.348	0.327	0.384	0.309	0.161	0.133	0.115	0.141	0.296	0.265	0.24	0.217	0.158	0.554	0.508	0.276	0.24	0.224
PC-3 [JPC-3]	0.537	0.53	0.515	0.541	0.513	0.705	0.661	0.455	0.376	0.359	0.784	0.764	0.703	0.407	0.306	0.616	0.728	0.667	0.349	0.369
SK-MES-1	0.316	0.346	0.29	0.226	0.161	0.723	0.4	0.273	0.144	0.17	0.563	0.572	0.276	0.21	0.117	0.326	0.333	0.212	0.147	0.123
NCI-H838	0.189	0.291	0.177	0.154	0.132	0.386	0.343	0.252	0.135	0.133	0.334	0.397	0.311	0.16	0.119	0.377	0.379	0.274	0.189	0.113
NCI-H1355	0.362	0.393	0.37	0.291	0.142	0.67	0.37	0.221	0.183	0.217	0.346	0.367	0.356	0.154	0.173	0.37	0.374	0.28	0.181	0.164
NCI-H1975	0.454	0.547	0.299	0.259	0.168	0.199	0.23	0.213	0.177	0.168	0.582	0.715	0.431	0.192	0.143	0.26	0.348	0.237	0.151	0.163
LK-2	0.684	0.67	0.403	0.178	0.148	0.19	0.165	0.184	0.18	0.187	0.224	0.232	0.185	0.166	0.17	0.573	0.566	0.314	0.329	0.26
NCI-H727	0.565	0.647	0.534	0.483	0.474	0.366	0.325	0.557	0.24	0.169	0.573	0.466	0.421	0.482	0.374	0.273	0.333	0.236	0.236	0.225
HCC-366	0.361	0.322	0.0243	0.0284	0.039						0.973	0.696	0.0686	0.04	0.0334	0.0828	0.135	0.0183	0.0243	0.0203

Cell Line	relative viability ([1]; first compound 0.005 µM)	relative viability ([1]; first compound 0.01581 µM)	relative viability ([1]; first compound 0.05 µM)	relative viability ([1]; first compound 0.1581 µM)	relative viability ([1]; first compound 0.5 µM)	relative viability ([2]; first compound 0.005 µM)	relative viability ([2]; first compound 0.01581 µM)	relative viability ([2]; first compound 0.05 µM)	relative viability ([2]; first compound 0.1581 µM)	relative viability ([2]; first compound 0.5 µM)	relative viability ([3]; first compound 0.005 µM)	relative viability ([3]; first compound 0.01581 µM)	relative viability ([3]; first compound 0.05 µM)	relative viability ([3]; first compound 0.1581 µM)	relative viability ([3]; first compound 0.5 µM)	relative viability ([4]; first compound 0.005 µM)	relative viability ([4]; first compound 0.01581 µM)	relative viability ([4]; first compound 0.05 µM)	relative viability ([4]; first compound 0.1581 µM)	relative viability ([4]; first compound 0.5 µM)
HOP-62	0.431	0.489	0.233	0.188	0.14	0.845	0.808	0.288	0.259	0.153	0.683	0.727	0.537	0.243	0.176	0.579	0.757	0.373	0.149	0.103
NCI-H1944	0.33	0.357	0.27	0.187	0.159	0.778	0.676	0.541	0.411	0.15	0.375	0.454	0.393	0.196	0.175	0.327	0.35	0.351	0.21	0.205
UMC-11	0.331	0.289	0.248	0.223	0.275	0.85	0.428	0.173	0.141	0.132	0.328	0.219	0.165	0.175	0.189	0.316	0.379	0.129	0.137	0.133
LU99A	0.386	0.418	0.189	0.185	0.174	0.245	0.3	0.219	0.201	0.177	0.301	0.324	0.259	0.204	0.164	0.404	0.341	0.252	0.159	0.151
NCI-H650	0.326	0.327	0.191	0.159	0.163	0.685	0.579	0.239	0.126	0.198	0.396	0.459	0.239	0.203	0.159	0.732	0.825	0.29	0.267	0.174
A-427	0.493	0.444	0.255	0.276	0.24	0.916	0.576	0.243	0.141	0.209	0.406	0.291	0.13	0.162	0.133	0.615	0.451	0.234	0.147	0.172
COR-L 105	0.368	0.417	0.356	0.33	0.37	0.773	0.685	0.56	0.382	0.252	0.59	0.66	0.546	0.248	0.267	0.44	0.34	0.336	0.264	0.281
NCI-H441	0.182	0.225	0.117	0.125	0.123	0.369	0.364	0.223	0.218	0.242	0.532	0.446	0.222	0.22	0.215	0.402	0.229	0.118	0.139	0.123
NCI-H2126	0.314	0.378	0.346	0.304	0.269	0.785	0.834	0.601	0.274	0.285	0.721	0.696	0.588	0.318	0.36	0.452	0.502	0.367	0.28	0.226
EBC-1																0.394	0.282	0.112	0.158	0.121
NCI-H1648		0.265	0.22	0.258	0.239						0.258	0.242	0.23	0.252	0.239					
SW 900	0.461	0.475	0.303	0.245	0.227	0.16	0.167	0.182	0.188	0.176	0.532	0.399	0.543	0.167	0.111					
NCI-H596						0.839	0.977	1.05	0.505	0.412	0.606	0.665	0.788	0.727	0.26		0.412	0.433	0.214	0.242
NCI-H1563						0.509	0.54	0.483	0.295	0.413	0.742	0.768	0.684	0.695	0.54	0.646	0.608	0.606	0.717	0.296
NCI-H1299																0.753	0.698	0.187	0.179	0.0871
NCI-H522	0.877	1.14	0.975	0.76	0.519	1.2	1	0.493	0.331	0.426	0.684	0.618	0.69	0.532	0.433					
A549																0.423	0.123	0.051	0.0422	0.0618
IA-LM																0.332	0.25	0.201	0.142	0.0927
Calu-6																0.726	0.379	0.164	0.171	0.153
